This is an account of results in patent publication US6861256B2, “Therapeutic and diagnostic tools for impaired glucose tolerance conditions” (The General Hospital Corporation, priority 1997, dated 2005).

Entries after “also recorded” stand apart in the source; their conditions may differ.

One series relates to C. elegans dauers. Nature of the series: Dauer recovery assay on drug plates. Format: in vivo. The conditions noted are these: for dauer recovery: C. elegans dauers induced by mutation or pheromone, drug plates; for dauer recovery of daf-2 dauers: daf-2(e1370) mutant dauers, all concentrations. The protocol:
Minimal media plates were used for the drug assays: 3.0 g NaCl, 20 g agarose (Sigma-Type II #A6877) and 970 ml of water. The autoclaved solution was cooled to 50-55° C. before 25 ml of 1M KPO4 (pH 6.0), 1.0 ml 1M CaCl2, 1.0 ml of 1M MgSO4, and 1 ml of 5 mg/ml cholesterol were added. In some assays, Escherichia coli (DH5α) bacteria arrested with streptomycin was added to each plate.
In some experiments, 100-200 eggs or synchronized L1s were put onto the drug plates. For all experiments described herein, about 10,000 L1s were placed in 10 ml of S Medium containing 1-2 ml of a 0.4% (w/v) solution of Escherichia coli DH5α bacteria in M9 solution (Wood (1988) (Cold Spring Harbor Laboratory Press, Cold Spring Harbor, N.Y.)) arrested with streptomycin, in a 25 ml flask on a rotating heated water bath at 25° C. For wild-type N2 dauers, 600 μl of the 0.4% bacterial solution and pheromone was also added to flask as described in Gottlieb and Ruvkun (1994) Genetics 137:107120. The pheromone preparation is a solution prepared as follows. Animals were grown in a large flask for several generations, and then spun down. The supernatant was boiled down to a brownish powder and then ethanol extracted. After 72 hours of liquid growth, animals were centrifuged and the supernatant removed. Animals were then resuspended in a 15 ml tube with a pre-heated 25° C. solution of 1% SDS and tubes were placed on a rocker at 25° C. for 30 minutes. Animals were centrifuged and the SDS removed. Animals were washed with either M9 or S medium (Wood (1988) (Cold Spring Harbor Laboratory Press, Cold Spring Harbor, N.Y.)) 4-6 times. After a final spin, 100-200 dauers were placed onto the drug plates without food. 24 and 48 hours later, plates were scored for the number of dauers and non-dauer adults.
For each strain tested, a control plate without any drug, with and without food was also tested. […] The assay was performed at 25° C., which means that the daf-c mutants are still under full dauer inducing conditions.

The test system of series [1] is C. elegans DAF-16 with the serine or threonine of the Akt/PKB consensus sites mutated to alanine.
In a further series the test system is T1, C. elegans DAF-16.
T1 sequence: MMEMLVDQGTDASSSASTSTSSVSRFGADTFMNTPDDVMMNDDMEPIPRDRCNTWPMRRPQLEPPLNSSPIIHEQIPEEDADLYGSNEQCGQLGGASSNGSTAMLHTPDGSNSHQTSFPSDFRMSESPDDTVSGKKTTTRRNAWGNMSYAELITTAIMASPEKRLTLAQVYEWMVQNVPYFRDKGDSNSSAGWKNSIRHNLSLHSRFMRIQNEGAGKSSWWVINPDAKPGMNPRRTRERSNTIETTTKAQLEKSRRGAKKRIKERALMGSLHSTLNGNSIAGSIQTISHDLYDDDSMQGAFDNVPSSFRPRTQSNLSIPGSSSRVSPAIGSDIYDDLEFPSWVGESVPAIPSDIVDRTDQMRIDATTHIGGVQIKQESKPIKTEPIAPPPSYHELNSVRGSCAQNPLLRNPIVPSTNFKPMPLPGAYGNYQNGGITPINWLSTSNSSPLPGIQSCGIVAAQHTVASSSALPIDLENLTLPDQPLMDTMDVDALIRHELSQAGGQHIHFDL

The test system of a further series is A. caninum L3. Description: Drug assay in A. caninum (resumption of feeding of infective L3). Format: in vivo, Ancylostoma caninum. The conditions noted are these: for dauer recovery: A. caninum L3, agonist without serum and GSM. The protocol:
Hookworm infective L3 animals were collected from 1-4 wk old coproculture by the Baermann technique, and decontaminated with 1% HCL in BU buffer (50 mM Na2PO4/22 mM KH2PO4/70 mM NaCl, pH 6.8) (Hawdon and Schad (1991) in Developmental Adaptations in Nematodes., ed. C. A. Toft, A. A. a. L. B. (Oxford University Press, Oxford), pp. 274-298; and Hawdon and Schad (1991) J. Helm. Soc. Wash. 58:140-142) for 30 minutes at 22° C. Approximately 250 L3 animals were incubated in individual wells of a 96-well tissue culture plate containing 0.1 ml RPMI1640 tissue culture medium, supplemented with 0.25 mM HEPES pH 7.2, 100 U/ml penicillin, 100 μg/ml streptomycin, 100 μg/ml gentamycin, and 2.5 μg/ml amphotericin B. The L3 animals were activated to resume development and feeding by including 10% (v/v) canine serum and 25 mM S-methyl-glutathione (GSM; Hawdon et al. (1995) Exper. Parasitol. 80:205-211). Non-activated L3 animals were incubated in RPMI alone (i.e., without the stimulus). Stock solutions of the drugs were made in RPMI, and included in the incubation at the indicated concentrations. […] The L3 animals were incubated at 37° C. 5% CO2 for 24 hours. The percentage of feeding L3 animals was determined by incubating the L3 animals with 2.5 mg/ml FITC-BSA for 2-3 hours, followed by counting the number of L3 animals that had ingested the labeled BSA by microscopic examination under epi-fluorescent illumination (Hawdon and Schad (1990) J. Parasit. 76:394-398). Each treatment was done in triplicate, and each experiment was repeated at least once.

Series [2] deals with C. elegans unc-86 mutants. Description: 5HT accumulation in the NSM neuron of unc-86 mutants. Format: in vivo.
Setting [3] is: wild-type pheromone-induced dauers.

For the compound `C[N+](C)(C)CCOC(N)=O` [carbachol], the dauer recovery result in the series on C. elegans dauers is “promoted recovery of dauers induced by mutation as well as pheromone”.
Consider human AKT, for which the in vitro phosphorylation result is reported as “in vitro phosphorylation of DAF-16 (or fragments of DAF-16) is abolished” in series [1] and “human AKT will phosphorylate C. elegans DAF-16” with C. elegans DAF-16.
On to `C[C@@H]1O[C@H](C[N+](C)(C)C)C[C@H]1O` [muscarine], for which the dauer recovery result in the series on C. elegans dauers is “promoted dauer recovery”.
With `CC[C@@H]1C(=O)OC[C@@H]1Cc1cncn1C` [pilocarpine], the dauer recovery entry in the series on C. elegans dauers is listed as “promoted dauer recovery; also recorded: promoted recovery of dauers induced by mutation as well as pheromone”; with A. caninum L3, “failed to recover”. The “concentration of maximum recovery” value in the series on C. elegans dauers (daf-7(e1372) dauers) was determined as 5 mM; in the series with C. elegans dauers (setting [3]), 1 mM.
`c1ccc([C@H]2CN3CCSC3=N2)cc1` [Levamisole, levamisole]: in the series on C. elegans dauers, the dauer recovery result is reported as “no effect on dauer recovery”.
As for `COC(=O)C1=CCCN(C)C1` [arecoline], the dauer recovery entry in the series on C. elegans dauers is listed as “promoted dauer recovery; also recorded: promoted recovery of dauers induced by mutation as well as pheromone”; in the series on A. caninum L3, “promotes dauer recovery”. For the same compound, the “maximal response lower than for the other agonists” value in the series with C. elegans dauers (C. elegans, FIG. 44B) is on record as 10 fold lower; in the series with A. caninum L3 (A. caninum, FIG. 44B), 10 fold lower. The “dauer recovery of daf-2 dauers” value with C. elegans dauers is reported as “fails to recover at all concentrations”.
As for `CN1[C@@H]2CC[C@H]1C[C@@H](OC(=O)C(CO)c1ccccc1)C2` (some centres unmarked) [atropine], the “inhibition of muscarinic agonist-induced dauer recovery” value in the series on C. elegans dauers (C. elegans, 1 mM oxotremorine, increasing atropine) is recorded as “completely inhibited; also recorded: all of the drug-induced dauer recovery was inhibited”. Further, the “recovery induced by oxotremorine in combination with atropine” value in the series with C. elegans dauers (daf-7(e1372) dauers, 1 mM oxotremorine + 1 mM atropine) turned out to be 5%. The “oxotremorine response in presence of atropine” value in the series on C. elegans dauers (daf-7(e1372) dauers, 1 mM oxotremorine + 5 mM atropine) is reported as “completely abolished”. Moreover, the dauer larvae recovered with C. elegans dauers (pheromone-induced dauers, bacterial food plus atropine, 25° C.) is recorded as 21%. In the series on A. caninum L3 (A. caninum L3, 0.5 mM arecoline and 1.0 mM atropine (increasing atropine in FIG. 44C)), the “recovery with arecoline plus atropine” value was “completely inhibited; also recorded: failed to recover”. For the same compound, the “recovery / resumption of feeding” value in the series with A. caninum L3 (A. caninum L3, 10% serum and 25 mM GSM, atropine 0.5 mM) is on record as “completely inhibited recovery”. The inhibition at 500 µM in the series on A. caninum L3 (Ancylostoma caninum, read-out: inhibition of recovery) stood at 99.5%.
Regarding `O=C1CCCN1CC#CCN1CCCC1` [oxotremorine], the results for the dauer recovery result in the series on C. elegans dauers and in the series with A. caninum L3 were “promoted dauer recovery; also recorded: promoted recovery of dauers induced by mutation as well as pheromone” and “promotes dauer recovery”, respectively. Besides, the Emax at 1000 µM with C. elegans dauers (Caenorhabditis elegans, daf-7(e1372), daf-10(e1387) double mutant, 1 mM oxotremorine, read-out: maximum response, recovery) was 13%. The dauers that recover worked out at 30% in the series on C. elegans dauers (daf-1(m40) dauers in oxotremorine) and 50% in the series with C. elegans dauers (daf-4(m63) dauers in oxotremorine). Further, the “dauer recovery of daf-2 dauers” value in the series on C. elegans dauers is recorded as “fails to recover at all concentrations”. In addition, the figures for the “concentration of maximum recovery” value in the series on C. elegans dauers (daf-7(e1372) dauers), in the series on C. elegans dauers (setting [3]) and with A. caninum L3 (A. caninum L3 dauers) were 5 mM, 1 mM and 5 mM, respectively. Besides, the dauers recovered in the series with C. elegans dauers (daf-7(e1372) dauers, 1 mM oxotremorine) is given as 40%.
As for `CNCCC(Oc1ccc(C(F)(F)F)cc1)c1ccccc1` (centres unmarked) [Prozac], the “5HT accumulation in the NSM” value in series [2] is listed as “causes 5HT accumulation in the NSM to disappear”.

In general, inhibition refers to the change of the read-out against control, counted positive when it falls.
